The source of these data is patent US7417156B2, “Orally active, antimalarial, anticancer, artemisinin-derived trioxane dimers” (Johns Hopkins University, priority 2002, dated 2008).

One series deals with OVCAR-4. Briefly: NCI 60 cell line panel screen (SRB). Type of series: cell-based, human.
For a further series, the system named is SN12C. Briefly: NCI 60 cell line panel screen (SRB). The class given is cell-based, human.
The next series relates to SF-295. Briefly: NCI 60 cell line panel screen (SRB). The class given is cell-based, human.
The next series deals with HCC-2998. Briefly: NCI 60 cell line panel screen (SRB). Type of series: cell-based, human.
The next series concerns UACC-62. Briefly: NCI 60 cell line panel screen (SRB). As to conditions: UACC-62 (Melanoma). The class given is cell-based, human.
Another series relates to SK-MEL-5. Briefly: NCI 60 cell line panel screen (SRB). The class given is cell-based, human.
Another series relates to LOX IMVI. Briefly: NCI 60 cell line panel screen (SRB). The class given is cell-based, human.
For another series, the system named is UO-31. Briefly: NCI 60 cell line panel screen (SRB). Type of series: cell-based, human. The conditions noted are these: for Log10GI50: Renal Cancer, UO-31; for Log10LC50 / Log10TGI50: UO-31 (Renal Cancer); for Log10LC50: LC50: PG=−50; for Log10TGI50: TGI: PG=0.
The test system of the next series is NCI-H226. Briefly: NCI 60 cell line panel screen (SRB). The conditions noted are these: for Log10LC50 / Log10TGI50: NCI-H226 (Non-Small Cell Lung Cancer); for Log10LC50: LC50: PG=−50; for Log10TGI50: TGI: PG=0; for Log10GI50: Non-Small Cell Lung Cancer, NCI-H226. Type of series: cell-based, human.
The subject of the next series is A498. Briefly: NCI 60 cell line panel screen (SRB). The class given is cell-based, human.
The subject of another series is DU-145. Briefly: NCI 60 cell line panel screen (SRB). Type of series: cell-based, human.
The test system of another series is MOLT-4. The conditions noted are these: for Log10GI50: Leukemia, MOLT-4; for Log10LC50 / Log10TGI50: MOLT-4 (Leukemia); for Log10LC50: LC50: PG=−50; for Log10TGI50: TGI: PG=0. The procedure: Growth Inhibition. […] The screening assay is performed on 96-well microtitre plates. Relatively high initial inoculation densities are used, in order to permit measurement of “time-zero” values and to enhance the screen's ability to detect and provide some differentiation between growth inhibition and cytotoxic response parameters. […] The inoculated microtitre plates are pre-incubated for 24 hours at 37° C. prior to drug additions. The five drug dilutions tested routinely range from 10^−4 to 10^−8 molar. Higher or lower concentration ranges may be selected on a non-routine basis if appropriate solubility and/or prior biological information or other screening data so dictate. Duplicate wells are prepared for all concentrations, (concentration is often denoted by placing brackets around a number); “time-zero” and “no drug” controls are also provided for each test. The minimum amount of compound required for a one-time evaluation in the routine screen can be calculated from the knowledge that each test requires a total of approximately 40 ml (0.04 liter) of cell culture medium containing the highest desired drug concentration. […] After a 48 hour incubation (37° C.) with the test compound, the cells are fixed in situ to the bottoms of the microtitre wells by addition of 50 μl of either 50% trichloroacetic acid (for adherent cell lines) or 80% trichloroacetic acid (for settled cell suspension lines), followed by incubation for 60 minutes at 4° C. The cellular protein in each well is assayed using a sulforhodamine B (SRB) stain procedure. Briefly, after discarding the supernatants, the microtitre plates are washed 5 times with deionized water and air-dried. […] Unbound SRB is removed by washing 5 times with 1% acetic acid. […] SRB is a bright pink anionic dye which, in dilute acetic acid, binds electrostatically to the basic amino acids of TCA-fixed cells. Cryopreserved master stocks of all the lines are maintained, and cultures used for screening are replaced from the master stock after no more than twenty passages in the screening laboratory. The cell line panel consists of 60 lines, organized into nine, disease-related subpanels including leukemia, non-small-cell lung cancer, colon, CNS, melanoma, ovarian, renal, prostate and breast cancers.
At this value the increase from time tzero, in the number or mass of cells in the test well is only 50% as much as the corresponding increase in the control well during this period of the experiment, see Table III. A drug effect of this intensity is interpreted as primary growth inhibition.
At this value the number or mass of cells in the well at the end of the experiment equals the number or mass of cells in the well at time tzero, see Table IV. A drug effect of this intensity is regarded as cytostasis.
At this value, the number or mass of cells in the test well at the end of the experiment is half that at time tzero, see Table V. This is interpreted as cytotoxicity.
Dose response curves, shown in the above mentioned Figures, are obtained by exposing various cancer cell lines to compounds having a known concentration ([log10M]), as discussed in detail above, and then plotting the percentage growth of each cell line for each concentration. […] Percentage growth is determined by dividing the number or mass of cells in the test well by the number or mass of cells in a control well. […] As discussed previously, the five drug dilutions routinely tested range from 10^−4 to […].

A further series deals with SW-620. Briefly: NCI 60 cell line panel screen (SRB). The class given is cell-based, human.
Series [1] deals with P. berghei NY malaria parasite. Briefly: Antimalarial efficacies in vivo in mice. An excerpt: Neither overt toxicity nor behavioral modification was observed due to drug administration in any of these mouse experiments.
In the next series the test system is malaria parasite. Briefly: Efficacy Study Blood Schizontocidal Activity. Type of series: in vivo. Also on record: ED90: unit not given here.

In the case of `CC1CCC2C(C)C(CC(O)(CO)CC3OC4OC5(C)CCC6C(C)CCC(C3C)C46OO5)OC3OC4(C)CCC1C32OO4` (stereo not shown) [Compound 5, bis-trioxane vicinal diol], the Log10LC50 was −4.12 log10M in the series on OVCAR-4 (OVCAR-4 (Ovarian Cancer), LC50: PG=−50); −4.26 log10M in the series with SN12C (SN12C (Renal Cancer), LC50: PG=−50); −4.04 log10M in the series with SF-295 (SF-295 (CNS Cancer), LC50: PG=−50); above −4.00 log10M in the series with HCC-2998 (HCC-2998 (Colon Cancer), LC50: PG=−50); −4.24 log10M in the series on UACC-62 (LC50: PG=−50); −4.21 log10M with SK-MEL-5 (SK-MEL-5 (Melanoma), LC50: PG=−50). For the same compound, the Log10LC50 in the series with LOX IMVI (LOX IMVI (Melanoma), LC50: PG=−50) was −4.44 log10M; with UO-31 it was −4.26 log10M; with NCI-H226, −4.11 log10M; in the series on A498 (A498 (Renal Cancer), LC50: PG=−50), −4.21 log10M; with DU-145 (DU-145 (Prostate Cancer), LC50: PG=−50), −4.13 log10M; with MOLT-4, above −4.00 log10M. Moreover, in the series with SW-620 (SW-620 (Colon Cancer), LC50: PG=−50), the Log10LC50 is given as above −4.00 log10M. In addition, the Log10TGI50 is on record as −4.55 log10M with OVCAR-4 (OVCAR-4 (Ovarian Cancer), TGI: PG=0); −4.72 log10M in the series on SN12C (SN12C (Renal Cancer), TGI: PG=0); −4.49 log10M in the series on SF-295 (SF-295 (CNS Cancer), TGI: PG=0); −4.23 log10M with HCC-2998 (HCC-2998 (Colon Cancer), TGI: PG=0); −4.67 log10M in the series on UACC-62 (TGI: PG=0); −4.64 log10M in the series on SK-MEL-5 (SK-MEL-5 (Melanoma), TGI: PG=0). For the same compound, the Log10TGI50 in the series on LOX IMVI (LOX IMVI (Melanoma), TGI: PG=0) is −5.47 log10M; in the series with UO-31 it was −4.68 log10M; in the series on NCI-H226 it was −4.49 log10M; in the series with A498 (A498 (Renal Cancer), TGI: PG=0) it was −4.51 log10M; in the series on DU-145 (DU-145 (Prostate Cancer), TGI: PG=0), −4.48 log10M; in the series on MOLT-4 it was above −4.00 log10M. The same compound displayed a Log10TGI50 in the series on SW-620 (SW-620 (Colon Cancer), TGI: PG=0) above −4.00 log10M. Also, the Log10GI50 with OVCAR-4 (Ovarian Cancer, OVCAR-4) was −4.99; with SN12C (Renal Cancer, SN12C), −7.60; with SF-295 (CNS Cancer, SF-295), −4.94; in the series on HCC-2998 (Colon Cancer, HCC-2998), −4.65; in the series on SK-MEL-5 (Melanoma, SK-MEL-5), −7.69; in the series with LOX IMVI (Melanoma, LOX IMVI) it was below −8.00. Further, the Log10GI50 in the series on UO-31 is −7.38; in the series with NCI-H226, −4.87; in the series on A498 (Renal Cancer, A498), −4.81; in the series with DU-145 (Prostate Cancer, DU-145), −4.83; in the series with MOLT-4 it was below −8.00; with SW-620 (Colon Cancer, SW-620) it was −4.97. In addition, in the series with MOLT-4, the “concentration for cytotoxicity (percentage growth −50)” value is “greater than 10^−4 M”.

In the case of `CC1CCC2C(C)C(CC(O)(CC3OC4OC5(C)CCC6C(C)CCC(C3C)C46OO5)CS(=O)(=O)c3ccc(C(=O)O)cc3)OC3OC4(C)CCC1C32OO4` (stereo not drawn) [Compound 10c, bis-trioxane β-hydroxysulfone benzoic acid], in [1] (route IV), the ED50 came out at 2.7 mg/kg × 4, the ED90 was 10.0 mg/kg × 4 and the “% Parasite Supression at 10 mg/kg” value is 83.4%. Also, in series [1] (route PO), the ED50 is 7.5 mg/kg × 4, the ED90 is 35.0 mg/kg × 4 and the “% Parasite Supression at 10 mg/kg” value is reported as 46.1%. Also, in the series with UO-31, the Log10GI50 is reported as −5.91, the Log10LC50 is on record as above −4.30 log10M and the Log10TGI50 was above −4.30 log10M. In the series on NCI-H226, this compound gave a Log10LC50 of −4.82 log10M, a Log10TGI50 below −8.30 log10M and a Log10GI50 below −8.30. For the same compound, in the series with MOLT-4, the Log10LC50 is reported as above −4.30 log10M and the Log10TGI50 is on record as above −4.30 log10M.

As to `C[C@@H]1CC[C@H]2[C@@H](C)C(CC(O)(CC3OC4O[C@]5(C)CC[C@H]6[C@H](C)CC[C@@H]([C@H]3C)C46OO5)c3ccc(C(=O)O)cc3)OC3O[C@]4(C)CCC1C32OO4` (stereo partly shown) [Compound 11b, bis-trioxane tertiary alcohol benzoic acid], in the series with UO-31, the Log10GI50 is listed as −6.78, the Log10LC50 was above −4.30 log10M and the Log10TGI50 is above −4.30 log10M. In the series on MOLT-4, the Log10GI50 is reported as below −8.30, the Log10LC50 is reported as above −4.30 log10M and the Log10TGI50 was above −4.30 log10M.

As to `CC1CCC2C(C)C(CC(COCC(=O)O)CC3OC4OC5(C)CCC6C(C)CCC(C3C)C46OO5)OC3OC4(C)CCC1C32OO4` (stereo not shown) [Compound 12b, bis-trioxane O-acetic acid], the ED50 in the series on malaria parasite (Route: IV) was 5.2; in the series with malaria parasite (Route: PO), 6.0; in series [1] (route IV), 1.0 mg/kg × 4; in series [1] (route PO), 6.5 mg/kg × 4. Further, the ED90 in the series with malaria parasite (Route: IV) is 10.0; with malaria parasite (Route: PO) it was 19.0; in [1] (route IV), 3.5 mg/kg × 4; in [1] (route PO) it was 17.0 mg/kg × 4. The “% Parasite Supression at 10 mg/kg” value in series [1] (route IV) was found to be 95.7%; in [1] (route PO), 46.5%. Moreover, the results for the Log10GI50 in the series with UO-31 and with MOLT-4 were −5.84 and −7.66, respectively. In addition, the Log10TGI50 in the series on UO-31 and in the series with MOLT-4 was above −4.30 log10M each time.
